Results: patent publication US20060293307A1, “Oxazolidinone derivatives as antimicrobials” (priority 2002, published 2006)
Like-named read-outs stand apart in the source and are kept apart here.

Assays:
[1] = tested on: E. faecium 398(VRE); test: MIC, agar incorporation method; type: cell-based, Enterococcus faecium
[2] = tested on: S. epidermidis 358; test: MIC, agar incorporation method; type: cell-based, Staphylococcus epidermidis
[3] = tested on: S. pneumoniae AB 14; test: MIC, agar incorporation method; type: cell-based, Streptococcus pneumoniae
[4] = tested on: S. aureus SG 511; test: MIC, agar incorporation method; type: cell-based, Staphylococcus aureus
[5] = tested on: S. pneumoniae 1256; test: MIC, agar incorporation method; type: cell-based, Streptococcus pneumoniae
[6] = tested on: S. aureus ATCC 25923; test: MIC, agar incorporation method; type: cell-based, Staphylococcus aureus
[7] = tested on: S. aureus (Smith 49951); test: MIC, agar incorporation method; type: cell-based, Staphylococcus aureus
[8] = tested on: S. pneumoniae ATCC 49619; test: MIC, agar incorporation method; type: cell-based, Streptococcus pneumoniae
[9] = tested on: S. aureus (MRSA) 21299; test: MIC, agar incorporation method; type: cell-based, Staphylococcus aureus
[10] = tested on: S. haemo ATCC 29970; test: MIC, agar incorporation method; type: cell-based
[11] = tested on: S. pneumoniae AB 31; test: MIC, agar incorporation method; type: cell-based, Streptococcus pneumoniae
[12] = tested on: H. influenzae ATCC 49247; test: MIC against Haemophilus strains; type: cell-based; conditions: s. No. 2, H. influenzae ATCC 49247
[13] = tested on: S. pyogenes 19615; test: MIC, agar incorporation method; type: cell-based, Streptococcus pyogenes
[14] = tested on: S. aureus (MRSA 33) Cipro R; test: MIC, agar incorporation method; type: cell-based, Staphylococcus aureus
[15] = tested on: S. pyogenes 25147; test: MIC, agar incorporation method; type: cell-based, Streptococcus pyogenes
[16] = tested on: S. aureus (MRSA) ST450; test: MIC, agar incorporation method; type: cell-based, Staphylococcus aureus
[17] = tested on: E. faecalis 21777; test: MIC, agar incorporation method; type: cell-based
[18] = tested on: H. influenzae βIac; test: MIC against Haemophilus strains; type: cell-based; conditions: s. No. 3, H. influenzae βIac
[19] = tested on: S. pneumoniae AB 17; test: MIC, agar incorporation method; type: cell-based, Streptococcus pneumoniae
[20] = tested on: Acinetobacter 9956; test: MIC, agar incorporation method; type: cell-based
[21] = tested on: S. pneumoniae AB 23; test: MIC, agar incorporation method; type: cell-based, Streptococcus pneumoniae
[22] = tested on: K. oxytoca 49131; test: MIC, agar incorporation method; type: cell-based
[23] = tested on: S. pneumoniae CS1221; test: MIC, agar incorporation method; type: cell-based, Streptococcus pneumoniae
[24] = tested on: S. pneumoniae CS 1687; test: MIC, agar incorporation method; type: cell-based, Streptococcus pneumoniae
[25] = tested on: S. pneumoniae AB-3; test: MIC, agar incorporation method; type: cell-based, Streptococcus pneumoniae
[26] = tested on: E. faecalis SP 346 (VRE); test: MIC, agar incorporation method; type: cell-based
[27] = Enterococcus faecium, S. No. 22, E. faecium 398(VRE), read-out: MIC
[28] = Staphylococcus epidermidis, S. No. 14, S. epidermidis 358, read-out: MIC
[29] = Streptococcus pneumoniae, AB14, S. No. 37, S. pneumoniae AB 14, read-out: MIC
[30] = Staphylococcus aureus, SG511, S. No. 3, S. aureus SG 511, read-out: MIC
[31] = Streptococcus pneumoniae, S. No. 56, S. pneumoniae 1256, read-out: MIC
[32] = Staphylococcus aureus, ATCC25923, S. No. 1, organism cell empty, read-out: MIC
[33] = Staphylococcus aureus, S. No. 9, S. aureus (Smith 49951), read-out: MIC
[34] = Streptococcus pneumoniae, ATCC49619, S. No. 48, S. pneumoniae ATCC 49619, read-out: MIC
[35] = Staphylococcus aureus, S. No. 5, S. aureus (MRSA) 21299, read-out: MIC
[36] = S. No. 15, S. haemo ATCC 29970, read-out: MIC
[37] = Streptococcus pneumoniae, AB31, S. No. 36, S. pneumoniae AB 31, read-out: MIC
[38] = Streptococcus pyogenes, S. No. 51, S. pyogenes 19615, read-out: MIC
[39] = Staphylococcus aureus, S. No. 7, S. aureus (MRSA 33) Cipro R, read-out: MIC
[40] = Streptococcus pyogenes, S. No. 52, S. pyogenes 25147, read-out: MIC
[41] = Staphylococcus aureus, S. No. 6, S. aureus (MRSA) ST450, read-out: MIC
[42] = Enterococcus faecalis, S. No. 18, E. faecalis 21777, read-out: MIC
[43] = Streptococcus pneumoniae, AB17, S. No. 40, S. pneumoniae AB 17, read-out: MIC
[44] = S. No. 30, Acinetobacter 9956, read-out: MIC
[45] = Streptococcus pneumoniae, AB23, S. No. 43, S. pneumoniae AB 23, read-out: MIC
[46] = Klebsiella oxytoca, S. No. 27, K. oxytoca 49131, read-out: MIC
[47] = Streptococcus pneumoniae, S. No. 34, S. pneumoniae CS1221, read-out: MIC
[48] = Streptococcus pneumoniae, CS1687, S. No. 44, S. pneumoniae CS 1687, read-out: MIC
[49] = Streptococcus pneumoniae, AB3, S. No. 32, S. pneumoniae AB-3, read-out: MIC
[50] = Enterococcus faecalis, S. No. 20, E. faecalis SP 346 (VRE), read-out: MIC

Measured: MIC

O=C(NC[C@H]1CN(c2ccc(N3CCN(c4ccc([N+](=O)[O-])s4)CC3)c(F)c2)C(=O)O1)C(Cl)Cl [compound 9, (S)—N-[[3-[-3-Fluoro-4-[N-1-(5-nitro-2-thienyl)-piperazinyl]phenyl] -2-oxo-5-oxazolidinyl]methyl]dichloroacetamide]
>8 µg/mL: [20]; S. No. 30, Acinetobacter 9956 | [22]; S. No. 27, K. oxytoca 49131
2 µg/mL: [6]; S. No. 1, organism cell empty
1 µg/mL: [9]; S. No. 5, S. aureus (MRSA) 21299 | [14]; S. No. 7, S. aureus (MRSA 33) Cipro R | [16]; S. No. 6, S. aureus (MRSA) ST450
>16 µg/mL: [12] | [18]
0.25 µg/mL: [3]; S. No. 37, S. pneumoniae AB 14 | [5]; S. No. 56, S. pneumoniae 1256 | [8]; S. No. 48, S. pneumoniae ATCC 49619 | [11]; S. No. 36, S. pneumoniae AB 31 | [19]; S. No. 40, S. pneumoniae AB 17 | [21]; S. No. 43, S. pneumoniae AB 23 | [23]; S. No. 34, S. pneumoniae CS1221 | [25]; S. No. 32, S. pneumoniae AB-3
0.5 µg/mL: [1]; S. No. 22, E. faecium 398(VRE) | [2]; S. No. 14, S. epidermidis 358 | [4]; S. No. 3, S. aureus SG 511 | [7]; S. No. 9, S. aureus (Smith 49951) | [10]; S. No. 15, S. haemo ATCC 29970 | [13]; S. No. 51, S. pyogenes 19615 | [15]; S. No. 52, S. pyogenes 25147 | [17]; S. No. 18, E. faecalis 21777 | [24]; S. No. 44, S. pneumoniae CS 1687 | [26]; S. No. 20, E. faecalis SP 346 (VRE)

CC(=O)NC[C@H]1CN(c2ccc(N3CCN(c4ccc([N+](=O)[O-])o4)CC3)c(F)c2)C(=O)O1 [Compound No. 4, (S)—N-[[3-[3-Fluoro-4-[4-(5-nitro-2-furyl)-1-piperazinyl]phenyl]-2-oxo-5-oxazolidinyl]methyl]acetamide]
8 µg/mL: [9]; [35] | [11]; [37] | [14]; [39] | [16]; [41] | [17]; [42] | [21]; [45] | [23]; [47] | [25]; [49] | [26]; [50]
16 µg/mL: [4]; [30] | [6]; [32] | [7]; [33]
> 16 µg/mL: [20]; [44] | [22]; [46]
2 µg/mL: [3]; [29]
4 µg/mL: [1]; [27] | [2]; [28] | [5]; [31] | [8]; [34] | [10]; [36] | [13]; [38] | [15]; [40] | [19]; [43] | [24]; [48]

CC(=O)NC[C@H]1CN(c2ccc(N3CCN(c4ccc(C=O)o4)CC3)c(F)c2)C(=O)O1 [Compound No. 3, (S)—N-[[3-[3-Fluoro-4-[4-(5-formyl-2-furyl)-1-piperazinyl]phenyl]-2-oxo-5-oxazolidinyl]methyl]acetamide]
0.25 µg/mL: [8]; [34] | [10]; [36] | [11]; [37] | [13]; [38] | [15]; [40] | [21]; [45] | [23]; [47] | [24]; [48] | [25]; [49]
4 µg/mL: [12]; Haemophilus influenzae, ATCC49247, read-out: MIC | [18]; Haemophilus influenzae, read-out: MIC
1 µg/mL: [4]; [30] | [6]; [32] | [16]; [41]
0.5 µg/mL: [1]; [27] | [2]; [28] | [5]; [31] | [7]; [33] | [9]; [35] | [14]; [39] | [17]; [42] | [26]; [50]
> 16 µg/mL: [20]; [44] | [22]; [46]
< 0.125 µg/mL: [3]; [29] | [19]; [43]

CN[C@H](CC(C)C)C(=O)N[C@H]1C(=O)N[C@@H](CC(N)=O)C(=O)N[C@H]2C(=O)N[C@H]3C(=O)N[C@H](C(=O)N[C@H](C(=O)O)c4cc(O)cc(O)c4-c4cc3ccc4O)[C@H](O)c3ccc(c(Cl)c3)Oc3cc2cc(c3O[C@@H]2O[C@H](CO)[C@@H](O)[C@H](O)[C@H]2O[C@H]2C[C@](C)(N)[C@H](O)[C@H](C)O2)Oc2ccc(cc2Cl)[C@H]1O [Vancomycin, reference compound]
0.5 µg/mL: [4]; Staphylococcus aureus, SG511 | [5]; Streptococcus pneumoniae, 1256 | [9]; Staphylococcus aureus, MRSA | [13]; Streptococcus pyogenes, 19615 | [14]; Staphylococcus aureus, MRSA | [15]; Streptococcus pyogenes, 25147 | [16]; Staphylococcus aureus, MRSA | [25]; Streptococcus pneumoniae, AB3
0.25 µg/mL: [3]; Streptococcus pneumoniae, AB14 | [8]; Streptococcus pneumoniae, ATCC49619 | [11]; Streptococcus pneumoniae, AB31 | [19]; Streptococcus pneumoniae, AB17 | [21]; Streptococcus pneumoniae, AB23 | [23]; Streptococcus pneumoniae, CS1221 | [24]; Streptococcus pneumoniae, CS1687
2 µg/mL: [2]; Staphylococcus epidermidis, 358 | [17]; Enterococcus faecalis, 21777
1 µg/mL: [6]; Staphylococcus aureus, ATCC25923 | [7]; Staphylococcus aureus | [10]
> 16 µg/mL: [1]; Enterococcus faecium, VRE | [20]; Acinetobacter, 9956 | [22]; Klebsiella oxytoca, 49131 | [26]; Enterococcus faecalis, VRE
